In US20170354650A1, “QUINOLINE DERIVATIVES FOR INHIBITING HISTONE METHYLTRANSFERASES AND USE THEREOF” (KOREA INSTITUTE OF SCIENCE AND TECHNOLOGY, priority 2016, published 2017):

What was measured:
[1] = tested on: ESET/SETDB1; test: Screening with Tet-inducible ESET/SETDB1 cell line (dot blot analysis, FIG. 1); assay type: cell-based; conditions: among 107 selected library compounds
Experimental: In order to find compounds that inhibit the ESET/SETDB1 enzyme, 107 compounds expected to inhibit the activity of ESET/SETDB1 were selected through structural modeling from a compound library. These compounds were screened using a Tet-inducible ESET cell line.
Tet-Inducible ESET (H3K9 Specific Histone Methyltransferase) Cell Line (Tetracycline-Inducible ESET Cells):
A Tet-inducible ESET cell line was prepared using the T-REx™ system available from Invitrogen. The myc-ESET gene was subcloned into pcDNA5/TO and transfected into somatic mother cells (STHdh^Q7/7, striatal cells) using pcDNA6/TR.
Confocal Microscopy for Determination of H3K9me3 (Confocal Microscopy for Identification of Change in Heterochromatin Condensation by H3K9Me3 and Drug)
An indirect fluorescence labeling method using fluorescein-conjugated secondary antibodies was used. After fixing ESET inducible cells with 4% PFA and incubating with H3K9me3 (rabbit antibody; dilution, 1:200; Millipore) primary antibodies, the cells were incubated with fluorescence-conjugated secondary antibodies (Alexa 594; dilution, 1:400; Thermo). Images were obtained using a confocal microscope (IX2-DSU, Olympus, Tokyo, Japan).
Among those compounds, #7 compound was a quinolone derivative, which is selected as a hit-compound through the instant experiment. The #7 compound in FIG. 1 is Compound 8 in the present invention.

[2] = molecular target: T1, ESET/SETDB1 enzyme (Homo sapiens, UniProt Q15047); test: SETDB1 chemiluminescence enzyme assay (BPS Bioscience kit); assay type: biochemical; conditions: test compound 1-100 μM, FIG. 2
T1 construct: purchased BPS Bioscience
Experimental: In order to investigate the inhibitory effect against the activity of the ESET/SETDB1 enzyme of the compounds according to the present disclosure, SETDB1 chemiluminescence assay was conducted for the compound 8. The SETDB1 assay was performed using the SetDB1 chemiluminescent assay kit (BPS Bioscience) according to the manufacturer's protocol. S-Adenosylmethionine (SAM, stock concentration 20 μM) was used as a […]. First, SAM and the test compounds were prepared to final concentrations of 1 μM, 3 μM, 10 μM, 30 μM and 100 μM by diluting with DMSO (final volume 1 μL). 150 μL of a TBST buffer (1X TBS, pH 8.0, containing 0.05% Tween-20) was added to each well of a 96-well plate and hydrated at room temperature for 15 minutes. A master mix containing an assay buffer, the compound 8 and the SETDB1 enzyme was prepared.
25 μL (7.5 μL 4×HMT buffer+2.5 μL 20 μM SAM+15 μL H2O) of the prepared master mix was added to each well of the plate. Then, 1 μL of the test compound (1 μM, 3 μM, 10 μM, 30 μM or 100 μM) and 20 μL of the diluted SetDB1 enzyme were added sequentially. […] Chemiluminescence resulting from the reaction between the HRP-conjugated secondary antibody and the added HRP substrate was measured using a chemiluminescence reader (Molecular Devices microplate reader) and the result was analyzed using the SoftMax Pro software.

[3] = tested on: trimethylation of H3K9 (H3K9me3); test: Change in H3K9 trimethylation in brain of YAC128 mouse; assay type: in vivo; conditions: striatal brain tissue of YAC128 mouse, anti-H3K9me3 blot, FIGS. 4A and 4B
Experimental: After adding the striatal brain tissue of YAC128 mouse to 1 mL of PBS containing 0.4 mM sodium butyrate, 5% Triton X-100, 3 mM DTT, 1 mM sodium orthovanadate, 5 mM sodium fluoride, 3 mM PMSF, 0.5 mg/mL leupeptin and 10 mg/mL aprotinin, a cell homogenate was obtained using a Downce crusher. After centrifugation at 3000 rpm for 10 minutes, the supernatant was removed. The precipitating cell pellet was washed twice with a 5% Triton buffer and histone was extracted with 0.2 M HCl. After neutralizing the histone-containing solution to neutral pH with 1 N NaOH, proteins were quantitated and separated by 15% SDS-PAGE. The change in trimethylation of H3K9 (H3K9me3) was investigated using anti-H3K9me3 (rabbit antibody; dilution, 1:1000; Millipore).

[4] = tested on: transgenic YAC128 mouse; test: Rotarod performance test in YAC128 animal model; assay type: in vivo; conditions: 15-month-old male YAC128 mice, 0.636 mg/kg for 3 weeks, 5 days a week, 5 rpm, compared to the vehicle, FIG. 3
Experimental: The effect of the compound according to the present disclosure on motor ability was evaluated using the transgenic YAC128 mouse which expresses the human Huntingtin gene containing 128 CAG repeat sequences as a model of Huntington's disease (HD) (Menalled L et al., 2009, Neurobiol Dis 35(3):319-36). The Huntington's disease model mouse is reported to show decline in motor ability, which is the typical pathological symptom of Huntington's disease, from 6 around months after birth, progress of neurodegeneration from 9 months and aggregation of mutant Huntington's genes in striatal neurons from around 18 months.
Rotarod performance test was conducted using 15-month-old male YAC128 mice. The drug was administered (0.636 mg/kg) for 3 weeks, 5 days a week, and the rotarod test was performed on the 5th day of each week.
The mouse was placed on a rotating rod (4 cm in diameter) and riding time was measured. The experiment was performed 4 times on the same day and 60 seconds was given to each mouse. The rotarod rotation speed was set to 5 rpm. The period of time until the mouse fell to the ground was measured. When the mouse remained longer than 60 seconds on the rod, the riding time was recorded as 60 seconds. The recorded time was statistically analyzed and was used as an indicator of the motor ability and balance of the mouse.

Row | Structure (SMILES) | inhibitory effect against ESET/SETDB1 [1] | trimethylation of H3K9 (H3K9me3) [2] | intensity of trimethylated H3K9 [3] | riding time on the rod [4]
1 | C=CCOc1cccc2nc(N3CCCC3)ccc12 [Compound 8, 5-allyloxy-2-(pyrrolidin-1-yl)quinoline] | significant inhibitory effect | remarkably decreased | remarkably decreased | remarkably increased
2 | C=CCNc1cccc2nc(N3CCCCC3)ccc12 [Compound 4, 2-(piperidin-1-yl)-N-allylquinolin-5-amine] | significant inhibitory effect |  |  | 
3 | C=CCOc1cccc2nc(Nc3ccccc3)ccc12 [Compound 11, 5-allyloxy-N-phenylquinolin-2-amine] | significant inhibitory effect |  |  | 
